Consider 21 molecules from ChEMBL document CHEMBL1149550, “5(Z)-benzylidene-1,2-dihydro-9-hydroxy-10-methoxy-2,2,4-trimethyl-5H-1-aza-6-oxa-chrysenes as non-steroidal glucocorticoid receptor modulators” (Bioorg Med Chem Lett, 2007).

The target of experiment [1] is T1, Glucocorticoid receptor (Homo sapiens, UniProt P04150).
T1 sequence (P04150 whole entry): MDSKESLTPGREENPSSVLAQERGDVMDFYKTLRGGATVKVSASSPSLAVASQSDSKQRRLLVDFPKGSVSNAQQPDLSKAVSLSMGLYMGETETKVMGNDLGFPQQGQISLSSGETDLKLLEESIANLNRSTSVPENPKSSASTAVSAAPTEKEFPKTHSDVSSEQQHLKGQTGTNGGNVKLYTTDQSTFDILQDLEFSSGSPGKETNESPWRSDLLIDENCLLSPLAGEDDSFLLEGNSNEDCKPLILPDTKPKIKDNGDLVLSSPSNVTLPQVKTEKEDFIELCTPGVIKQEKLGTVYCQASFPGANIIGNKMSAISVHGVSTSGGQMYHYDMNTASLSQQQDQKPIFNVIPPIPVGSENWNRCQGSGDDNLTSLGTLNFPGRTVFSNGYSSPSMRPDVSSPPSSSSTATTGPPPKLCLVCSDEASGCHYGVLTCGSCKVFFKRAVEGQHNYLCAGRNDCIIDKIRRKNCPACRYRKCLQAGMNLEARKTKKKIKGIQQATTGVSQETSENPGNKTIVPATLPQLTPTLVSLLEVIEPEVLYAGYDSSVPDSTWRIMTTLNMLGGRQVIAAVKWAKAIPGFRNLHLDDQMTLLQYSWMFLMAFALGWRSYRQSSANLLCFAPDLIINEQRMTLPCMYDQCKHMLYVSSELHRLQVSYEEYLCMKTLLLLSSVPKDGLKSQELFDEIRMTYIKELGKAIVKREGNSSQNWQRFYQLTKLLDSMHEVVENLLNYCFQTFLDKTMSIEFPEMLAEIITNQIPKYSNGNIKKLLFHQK
It counts as functional.
Description: Agonist activity at GR by GRE activation assay

Experiment [2] deals with T1, Glucocorticoid receptor. The format is functional. The source holds these as a separate data set.
Description: Antagonist activity at GR assessed as inhibition of dexamethasone-induced GRE activation
Experiment [3] has as its target T1, Glucocorticoid receptor. The format is functional. The source holds these as a separate data set.
Description: Activity at GR assessed as repression of TNFalpha and IL 1-beta induced E-selectin response
For experiment [4], the target named is T1, Glucocorticoid receptor.
Description: Displacement of radiolabeled Dexamethasone from glucocorticoid receptor
Experiment [5] concerns the target T1, Glucocorticoid receptor. The source holds these as a separate data set.
Description: Agonist activity at GR by GRE activation assay relative to Dexamethasone

In general, EC50 refers to the midpoint of the concentration-response curve. Higher therefore signals lower potency in that assay. One may read the IC50 as the point on the concentration scale where inhibition reaches its midpoint. A lower IC50 goes with inhibition by little substance. Usually Ki stands for the dissociation constant of the complex between target and ligand, obtained from inhibition or displacement.

Structures are written as SMILES. A value given as a limit tells only on which side of the number the result lay.

As to `COc1c(O)ccc2c1-c1ccc3c(c1/C(=C/c1cccc(C(F)(F)F)c1)O2)C(C)=CC(C)(C)N3`, the EC50 in experiment [1] and in experiment [5] was more than 1000 nM in each case. Further, the IC50 in experiment [2] was 2.5 nM; in experiment [3], 4.1 nM. In addition, in experiment [4], the affinity, expressed as Ki, was 2.7 nM.

Consider `COc1c(O)ccc2c1-c1ccc3c(c1/C(=C/c1cccc(-c4ccsc4)c1)O2)C(C)=CC(C)(C)N3`, for which the EC50 in experiment [1] and in experiment [5] was more than 1000 nM throughout. The IC50 in experiment [2] was 0.5 nM; in experiment [3] it was 1.4 nM. In experiment [4], this molecule showed a Ki of 3.1 nM.

On to `COc1ccc(/C=C2\Oc3ccc(O)c(OC)c3-c3ccc4c(c32)C(C)=CC(C)(C)N4)cc1`, for which the EC50 in experiment [1] is 133 nM; in experiment [2] it was more than 1000 nM. In experiment [3], this molecule gave an IC50 of 10 nM. Further, the Ki in experiment [4] amounted to 2.7 nM.

Take `COc1c(O)ccc2c1-c1ccc3c(c1/C(=C/c1ccccc1Cl)O2)C(C)=CC(C)(C)N3`: a half-maximal response in experiment [1] (EC50) required 18 nM. Further, the IC50 in experiment [2] was 24 nM; in experiment [3], 18 nM. Further, the inhibition constant Ki in experiment [4] was determined as 15 nM.

Molecule `COc1c(O)ccc2c1-c1ccc3c(c1/C(=C/c1ccc(O)cc1)O2)C(C)=CC(C)(C)N3` showed an EC50 in experiment [1] of 1.1 nM. Moreover, the 50% inhibitory concentration (IC50) in experiment [2] worked out at 0.4 nM; in experiment [3] it was 1 nM. Besides, in experiment [4], the affinity corresponds to a Ki of 1.1 nM.

In experiment [1], `COc1c(O)ccc2c1-c1ccc3c(c1/C(=C/c1ccc(F)cc1S(=O)(=O)N1CCCCC1)O2)C(C)=CC(C)(C)N3` displayed an EC50 of 108 nM. Besides, the figures for the IC50 in experiment [2] and in experiment [3] were 6.6 nM and 22 nM, respectively. This molecule also came in with a Ki in experiment [4] of 94 nM.

Regarding `COc1c(O)ccc2c1-c1ccc3c(c1/C(=C/c1ccccc1C)O2)C(C)=CC(C)(C)N3`, a half-maximal response in experiment [1] (EC50) required 3.4 nM. Besides, the IC50 in experiment [2] is 0.4 nM; in experiment [3], 1 nM. Besides, the Ki in experiment [4] is 1.7 nM.

As for `COc1c(O)ccc2c1-c1ccc3c(c1/C(=C/c1cccc(-c4ccccc4)c1)O2)C(C)=CC(C)(C)N3`, the EC50 in experiment [1] and in experiment [5] was more than 1000 nM each time. In addition, the IC50 in experiment [2] is 2.3 nM; in experiment [3], 12 nM. The molecule also yielded a Ki in experiment [4] of 7.2 nM.

In the case of `COc1c(O)ccc2c1-c1ccc3c(c1/C(=C/c1cccc(OC(F)(F)F)c1)O2)C(C)=CC(C)(C)N3`, the EC50 in experiment [1] and in experiment [5] was more than 1000 nM throughout. Also, the 50% inhibitory concentration (IC50) in experiment [2] came out at 1.9 nM; in experiment [3] it was 4.7 nM. In experiment [4], this molecule had a Ki of 4.1 nM.

In experiment [1], `COc1c(O)ccc2c1-c1ccc3c(c1/C(=C/c1ccccc1-c1ccccc1)O2)C(C)=CC(C)(C)N3` had an EC50 of 4.5 nM. Besides, the values for the half-inhibitory concentration (IC50) in experiment [2] and in experiment [3] were 3.6 nM and 4.4 nM, respectively. Besides, in experiment [4], the Ki amounted to 6.7 nM.

Take `COc1c(O)ccc2c1-c1ccc3c(c1/C(=C/c1cccc(Oc4ccccc4)c1)O2)C(C)=CC(C)(C)N3`: the EC50 in experiment [1] and in experiment [5] was more than 1000 nM in each case. In addition, the figures for the IC50 in experiment [2] and in experiment [3] were 1.9 nM and 74 nM, respectively. Also, the Ki in experiment [4] worked out at 4.6 nM.

Regarding `COc1c(O)ccc2c1-c1ccc3c(c1/C(=C/c1ccc(C(C)C)cc1)O2)C(C)=CC(C)(C)N3`, the EC50 in experiment [1] was 455 nM; in experiment [2], more than 1000 nM. Besides, the Ki in experiment [4] turned out to be 2.9 nM.

In the case of `COc1c(O)ccc2c1-c1ccc3c(c1/C(=C/c1cccc(-c4cccnc4)c1)O2)C(C)=CC(C)(C)N3`, the half-maximal effective concentration (EC50) in experiment [1] and in experiment [5] was more than 1000 nM each time. For the same molecule, the IC50 in experiment [2] was found to be 0.7 nM; in experiment [3], 3.6 nM. This molecule came in with a Ki in experiment [4] of 1.5 nM.

As for `COc1c(O)ccc2c1-c1ccc3c(c1/C(=C/c1cccc(C(F)(F)F)c1C)O2)C(C)=CC(C)(C)N3`, the results for the IC50 in experiment [2] and in experiment [3] were 2.6 nM and 15 nM, respectively. Affinity in experiment [4] was put at a Ki of 2.6 nM.

As for `COc1c(O)ccc2c1-c1ccc3c(c1/C(=C/c1ccc(-c4ccccc4)cc1)O2)C(C)=CC(C)(C)N3`, the EC50 in experiment [1] was 33 nM; in experiment [2], more than 1000 nM. For the same molecule, half-maximal inhibition in experiment [3] (IC50) required 77 nM. The molecule further yielded a Ki in experiment [4] of 4.4 nM.

For `COc1c(O)ccc2c1-c1ccc3c(c1/C(=C/c1ccc(OC(F)(F)F)cc1)O2)C(C)=CC(C)(C)N3`, the 50% effective concentration (EC50) in experiment [1] and in experiment [2] was more than 1000 nM in each case. The same molecule registered a 50% inhibitory concentration (IC50) in experiment [3] of 91 nM. In experiment [4], this molecule displayed a Ki of 4.3 nM.

Regarding `COc1c(O)ccc2c1-c1ccc3c(c1/C(=C/c1cccc(C)n1)O2)C(C)=CC(C)(C)N3`, in experiment [1], the 50% effective concentration (EC50) was found to be 0.7 nM. Further, the 50% inhibitory concentration (IC50) was found to be 1.1 nM in experiment [2] and 4.9 nM in experiment [3]. The molecule further displayed an inhibition constant (Ki) in experiment [4] of 1.6 nM.

In experiment [1], `COc1c(O)ccc2c1-c1ccc3c(c1/C(=C/c1ccccc1F)O2)C(C)=CC(C)(C)N3` showed an EC50 of 0.6 nM. For the same molecule, the IC50 in experiment [2] is 1.3 nM; in experiment [3], 1.4 nM. The same molecule displayed a Ki in experiment [4] of 0.8 nM.

In experiment [1], `COc1c(O)ccc2c1-c1ccc3c(c1/C(=C/c1ccc(C)cc1)O2)C(C)=CC(C)(C)N3` returned an EC50 of 38 nM. Also, the half-maximal inhibitory concentration (IC50) in experiment [2] amounted to 12 nM; in experiment [3] it was 15 nM. In experiment [4], this molecule showed a Ki of 1.9 nM.

In turn, `COc1c(O)ccc2c1-c1ccc3c(c1/C(=C/c1ccc(Cl)cc1)O2)C(C)=CC(C)(C)N3` displayed an EC50 in experiment [1] of 43 nM. For the same molecule, the IC50 is more than 1000 nM in experiment [2] and 12 nM in experiment [3]. Also, the Ki in experiment [4] turned out to be 1.7 nM.

As to `CCc1ccc(/C=C2\Oc3ccc(O)c(OC)c3-c3ccc4c(c32)C(C)=CC(C)(C)N4)cc1`, the EC50 in experiment [1] was 207 nM; in experiment [2], more than 1000 nM.
